# Assay results: US20110028447A1, “INDAZOLE DERIVATIVES” (Pfizer Inc., priority 2008, published 2011)
# Molecular target: human CB1 receptor (Homo sapiens, UniProt P21554)
# Test: Human CB1 receptor binding, [3H] CP-55,940 displacement on HEK cell membranes
# Set-up: expressed in transfected cells; host or cells: HEK cells, doxycycline-induced; membrane preparation
# Details: CB1 Ki
# Protocol: The Human CB1 receptor binding affinity and other biological activities of the compounds of this invention are determined by the following procedures. Membrane preparation: Human Embryonic Kidney (HEK) Cells expressing the human CB1 receptor under transcriptional regulation of a tetracycline inducible promoter were grown in Dulbecco's Modified Essential Medium with sodium pyruvate (Invitrogen, Carlsbad, Calif.) containing 10% tetracycline free fetal bovine serum (Clonetech, Mountain View, Calif.) 100 μg/ml hygromycin (Calbiochem, San Diego, Calif.), 5 μg/ml blasticidin (Invitrogen). CB1 receptor expression was induced by addition of 1 μg/ml doxycycline (Calbiochem) and incubation for an additional 24 hours. Cells were released from flasks using Cell Dissociation Buffer (Invitrogen). Cells were pelleted by centrifugation at 500×G for 5 minutes. Membranes were prepared by resuspending cells in ice cold TEE Buffer (25 mM Tris pH 7.4, 5 mM EDTA, 5 mM EGTA, Complete Protease Inhibitor (Roche, Basel, Switzerland)). Cells were lysed with 12 strokes of a dounce homogenizer. Unlysed cells were pelleted by centrifugation at 500×G for 5 minutes. Membranes were pelleted by centrifugation at 25,000×G for 30 minutes. Membranes were resuspended in TEE, dounced 12 strokes, and pelleted a second time at 25,000×G for 30 minutes. Membrane pellet was resuspended in 50 mM Tris pH 7.4, 100 mM NaCl, 3 mM MgCl2, 0.2 mM EGTA, Complete Protease Inhibitor (Roche). Protein concentration was determined using the Micro-BCA Protein Assay Kit (Pierce, Rockford, Ill.) using BSA as a standard. Membranes were quick frozen and stored at −80 degrees Celsius until use.
# Binding experiments: 50 μl of test compound was incubated with 50 μl of [^3H] CP-55,940 (Perkin Elmer, Boston, Mass.) (final concentration=[…]) and 150 μl of membrane homogenate (1 μg/well) in polypropylene 96-well plates (Corning, Acton, Mass.). Final reaction conditions were 50 mM Tris pH 7.4, 100 mM NaCl, 3 mM MgCl2, 0.2 mM EGTA, 0.04% BSA. Nonspecific binding was determined by incubation with 50 μM WIN-55, 212-2 (Tocris, Ellisville, Mo.). After incubation at room temperature for 60 minutes reactions were harvested by vacuum filtration through Unifilter GF/B-96 filters (Perkin Elmer) that had been presoaked in assay buffer containing 0.5% BSA (Sigma, St. Louis, Mo.) using a FilterMate Plate Harvester (Perkin Elmer). Filters were rinsed 4 times with 50 mM Tris pH 7.4, 0.025% Tween-20 and dried at 50 degrees Celsius for at least 30 minutes. 40 μl of Microscint-20 (Perkin Elmer) was added per well, and plates were counted using a Top-Count Microplate Scintillation Counter (Perkin Elmer). Binding data were analyzed and EC50 and K, values calculated using Graph Pad Prism 4.0 Software.
# Chain of human CB1 receptor (P21554 whole entry): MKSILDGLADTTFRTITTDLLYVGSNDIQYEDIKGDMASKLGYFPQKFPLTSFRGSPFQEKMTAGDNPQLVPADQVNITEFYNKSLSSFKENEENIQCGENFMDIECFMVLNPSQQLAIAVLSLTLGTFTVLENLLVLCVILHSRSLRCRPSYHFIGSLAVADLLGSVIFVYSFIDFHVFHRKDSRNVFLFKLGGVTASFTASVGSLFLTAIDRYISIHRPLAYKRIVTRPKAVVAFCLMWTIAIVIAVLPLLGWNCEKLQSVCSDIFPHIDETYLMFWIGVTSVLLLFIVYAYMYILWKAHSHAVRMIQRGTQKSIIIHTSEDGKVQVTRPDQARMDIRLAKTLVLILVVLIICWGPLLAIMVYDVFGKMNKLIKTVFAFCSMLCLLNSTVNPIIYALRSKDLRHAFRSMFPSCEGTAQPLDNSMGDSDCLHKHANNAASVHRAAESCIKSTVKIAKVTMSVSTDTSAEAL
row,SMILES,Ki [nM]
1,CC(C)(C)[C@H](NC(=O)c1nn(Cc2ccc(C#N)cc2)c2cc(F)ccc12)C(=O)NCC1CCC(=O)N1 (stereo partly shown) [Example 403],> 400
2,CC(C)NC(=O)[C@@H](NC(=O)c1nn(Cc2ccc(C#N)cc2)c2ccccc12)C(C)(C)C [Example 405],48.1
3,CC(C)(C)[C@H](NC(=O)c1nn(Cc2ccc(C#N)cc2)c2ccccc12)C(=O)NC1CCC1 [Example 406],89.7
4,CC(C)(C)[C@H](NC(=O)c1nn(Cc2ccc(C#N)cc2)c2ccccc12)C(=O)NCC1CC1 [Example 407],36.2
5,CC(C)(C)[C@H](NC(=O)c1nn(Cc2ccc(C#N)cc2)c2ccccc12)C(=O)NO [Example 412],> 400
6,CC(C)(C)[C@H](NC(=O)c1nn(Cc2ccc(F)cc2)c2ccc(Cl)cc12)C(=O)NCCO [Example 428],0.89
7,CC(C)(C)[C@H](NC(=O)c1nn(Cc2ccc(F)cc2)c2ccc(Cl)cc12)C(N)=O [Example 429],0.44
8,CC(C)(C)[C@H](NC(=O)c1nn(Cc2ccc(F)cc2)c2ccc(Cl)cc12)C(=O)NCC(N)=O [Example 430],18.2
9,CC(C)(C)[C@H](NC(=O)c1nn(Cc2ccc(F)cc2)c2ccc(Cl)cc12)C(=O)NC[C@H](O)CO [Example 431],13.6
10,CC(C)(C)[C@H](NC(=O)c1nn(Cc2ccc(F)cc2)c2ccc(Cl)cc12)C(=O)NCCS(C)(=O)=O [Example 433],35.5
11,CC(C)(C)[C@H](NC(=O)c1nn(Cc2ccc(F)cc2)c2ccc(Cl)cc12)C(=O)NC[C@@H](O)CO [Example 434],55.1
12,CC(C)(C)[C@H](NC(=O)c1nn(Cc2ccc(F)cc2)c2ccc(Cl)cc12)C(=O)NC(CO)CO [Example 435],6.5
13,CC(C)(C)[C@H](NC(=O)c1nn(Cc2ccc(F)cc2)c2ccc(Cl)cc12)C(=O)NC1CC1 [Example 436],1.13
14,CC(C)NC(=O)[C@@H](NC(=O)c1nn(Cc2ccc(F)cc2)c2ccc(Cl)cc12)C(C)(C)C [Example 437],2.79
15,CC(C)(C)[C@H](NC(=O)c1nn(Cc2ccc(F)cc2)c2ccc(Cl)cc12)C(=O)NCC1CC1 [Example 439],3.26
16,CC(C)(C)[C@H](NC(=O)c1nn(Cc2ccc(C#N)cc2)c2ccc(Cl)cc12)C(N)=O [Example 440],104
17,CC(C)(C)[C@H](NC(=O)c1nn(Cc2ccc(C#N)cc2)c2ccc(Cl)cc12)C(=O)NC[C@H](O)CO [Example 441],> 400
18,CC(C)(C)[C@H](NC(=O)c1nn(Cc2ccc(C#N)cc2)c2ccc(Cl)cc12)C(=O)NCCS(C)(=O)=O [Example 442],> 400

row,SMILES,Ki [nM]
1,CC(C)(C)[C@H](NC(=O)c1nn(Cc2ccc(C#N)cc2)c2ccc(Cl)cc12)C(=O)NCC(N)=O [Example 443],> 400
2,CC(C)(C)[C@H](NC(=O)c1nn(Cc2ccc(C#N)cc2)c2ccc(Cl)cc12)C(=O)NCCS(N)(=O)=O [Example 444],> 400
3,CC(C)(C)[C@H](NC(=O)c1nn(Cc2ccc(C#N)cc2)c2ccc(Cl)cc12)C(=O)NC[C@@H](O)CO [Example 445],> 400
4,CC(C)(C)[C@H](NC(=O)c1nn(Cc2ccc(C#N)cc2)c2ccc(Cl)cc12)C(=O)NC1CC1 [Example 446],168
5,CC(C)(C)[C@H](NC(=O)c1nn(Cc2ccc(C#N)cc2)c2ccc(Cl)cc12)C(=O)NCCO [Example 447],170
6,CC(C)(C)[C@H](NC(=O)c1nn(Cc2ccc(C#N)cc2)c2ccc(Cl)cc12)C(=O)NC(CO)CO [Example 448],> 400
7,CC(C)(C)[C@H](NC(=O)c1nn(Cc2ccc(C#N)cc2)c2ccc(Cl)cc12)C(=O)NC1CCC1 [Example 449],> 400
8,CC(C)NC(=O)[C@@H](NC(=O)c1nn(Cc2ccc(C#N)cc2)c2ccc(Cl)cc12)C(C)(C)C [Example 450],241
9,CC(C)(C)[C@H](NC(=O)c1nn(Cc2ccc(C#N)cc2)c2ccc(Cl)cc12)C(=O)NCC1CC1 [Example 451],> 400
10,CC(C)(C)[C@H](NC(=O)c1nn(Cc2ccc(C#N)cc2)c2ccccc12)C(=O)N[C@H]1CNC(=O)C1 [Example 452],> 400
11,CC(C)(C)[C@H](NC(=O)c1nn(Cc2ccc(C#N)cc2)c2c(F)cccc12)C(=O)N[C@H]1CNC(=O)C1 [Example 453],> 400
12,CC(C)(C)[C@H](NC(=O)c1nn(Cc2ccc(C#N)cc2)c2cc(F)ccc12)C(=O)N[C@H]1CNC(=O)C1 [Example 454],> 400
13,CC(C)(C)[C@H](NC(=O)c1nn(Cc2ccc(F)cc2)c2ccccc12)C(=O)N[C@H]1CNC(=O)C1 [Example 455],33.6
14,CC(C)(C)[C@H](NC(=O)c1nn(Cc2ccc(C#N)cc2)c2ccccc12)C(=O)N[C@@H]1CNC(=O)C1 [Example 456],43.8
15,CC(C)(C)[C@H](NC(=O)c1nn(Cc2ccc(C#N)cc2)c2cc(F)ccc12)C(=O)N[C@@H]1CNC(=O)C1 [Example 458],120
16,CC(C)(C)[C@H](NC(=O)c1nn(Cc2ccc(C#N)cc2F)c2ccccc12)C(=O)NCCC(N)=O [Example 471],> 400
17,CC(C)(C)[C@H](NC(=O)c1nn(Cc2ccc(F)cc2)c2ccc(Cl)cc12)C(=O)NCCC(N)=O [Example 477],28.3
18,CC(C)(C)[C@H](NC(=O)c1nn(Cc2ccc(C#N)cc2)c2ccccc12)C(=O)NC[C@H]1C[C@@H]1CO [Example 485],152

# Same assay, conditions: read-out: CB1 Ki
row,SMILES,Ki [nM]
1,CN1CC(CNC(=O)[C@@H](NC(=O)c2nn(Cc3ccc(C#N)cc3)c3ccccc23)C(C)(C)C)CC1=O (stereo partly shown) [Example 408],> 400
2,CN1CC(CNC(=O)[C@@H](NC(=O)c2nn(Cc3ccc(C#N)cc3)c3c(F)cccc23)C(C)(C)C)CC1=O (stereo partly shown) [Example 409],73
3,CN1CC(CNC(=O)[C@@H](NC(=O)c2nn(Cc3ccc(C#N)cc3)c3cc(F)ccc23)C(C)(C)C)CC1=O (stereo partly shown) [Example 410],104
4,CC(C)(C)[C@H](NC(=O)c1nn(Cc2ccc(F)cc2)c2ccccc12)C(=O)NCc1nnc2n1CCC2 [Example 419],110
5,CC(C)(C)[C@H](NC(=O)c1nn(Cc2ccc(F)cc2)c2c(Cl)cccc12)C(=O)NCc1ccc(C(=O)O)cc1 [Example 426],90
6,CC(C)(C)[C@H](NC(=O)c1nn(Cc2ccc(F)cc2)c2ccccc12)C(=O)NCc1[nH]nc2c1CCC2 [Example 460],24.6
7,CC(C)(C)[C@H](NC(=O)c1nn(Cc2ccc(C#N)cc2)c2ccccc12)C(=O)NCc1nnc(C(=O)NCCO)o1 [Example 461],> 400
8,CC(C)(C)[C@H](NC(=O)c1nn(Cc2ccc(C#N)cc2)c2cc(F)ccc12)C(=O)NCc1nnc(C(=O)NCCO)o1 [Example 463],274
9,CC(C)(C)[C@H](NC(=O)c1nn(Cc2ccc(C#N)cc2)c2c(F)cccc12)C(=O)NCc1nnc(C(=O)NCCO)o1 [Example 464],58
10,CC(C)(C)[C@H](NC(=O)c1nn(Cc2ccc(C#N)cc2)c2ccccc12)C(=O)NCCN1CCNC(=O)C1 [Example 465],> 400
11,CC(C)(C)[C@H](NC(=O)c1nn(Cc2ccc(C#N)cc2F)c2ccccc12)C(=O)NCCN1CCNC(=O)C1 [Example 466],> 400
12,CC(C)(C)[C@H](NC(=O)c1nn(Cc2ccc(F)cc2)c2ccccc12)C(=O)NCCN1CCNC(=O)C1 [Example 467],53.8
13,CC(C)(C)[C@H](NC(=O)c1nn(Cc2ccc(F)cc2F)c2ccccc12)C(=O)NCCN1CCNC(=O)C1 [Example 468],23.5
14,CC(C)(C)[C@H](NC(=O)c1nn(Cc2ccc(F)c(F)c2)c2ccccc12)C(=O)NCCN1CCNC(=O)C1 [Example 469],80.7
15,CC(C)(C)[C@H](NC(=O)c1nn(Cc2ccc(F)cc2)c2c(F)cccc12)C(=O)NCCN1CCNC(=O)C1 [Example 474],41.2
16,CC(C)(C)[C@H](NC(=O)c1nn(Cc2ccc(F)cc2)c2ccc(Cl)cc12)C(=O)NCCN1CCNC(=O)C1 [Example 475],141
17,Cc1cc(O)nc(NCCNC(=O)[C@@H](NC(=O)c2nn(Cc3ccc(F)cc3)c3ccccc23)C(C)(C)C)n1 [Example 481],52.6
18,Cc1cc(O)nc(CCNC(=O)[C@@H](NC(=O)c2nn(Cc3ccc(F)cc3)c3ccccc23)C(C)(C)C)n1 [Example 483],84
19,CCOC(=O)c1ccc(Cn2nc(C(=O)N[C@H](C(=O)NCCO)C(C)(C)C)c3ccccc32)c(F)c1 [Example 484],> 400
